Here are results for one substance from patent US8575089B2, “Composition for preventing or treating inflammation” (University-Industry Cooperation Group of Kyung Hee, priority 2009, dated 2013).

In one experiment the test system is pancreas beta cells. The experiment in a line: Streptozotocin-induced Type I diabetes: insulin IHC staining of pancreas. Type of experiment: in vivo, ICR mouse.
Experiment [1] relates to CD11b+ macrophage isolated from peripheral blood. Put plainly: IL-6 and IL-10 expression (ELISA) in CD11b+ macrophages treated with SP. Type of experiment: cell-based, C57b1/6 mice. Particulars: CD11b+ macrophage in macrophage activation media; SP as Example 1-(1); 4.5, 10, 24 hours; FIG. 3. The protocol: [The procedure below names another cell line; the source says it served here with some conditions changed.] (§1) Peripheral blood was collected from C57b1/6 mice (8 weeks, sex; male, n=5, Average Weight; 20 g), diluted doubly with PBS, carefully placed on Ficoll in a tube, and then centrifuged at 2200 rpm for 20 minutes. By centrifuging, from the bottom, an erythrocyte layer, a ficoll layer, a mononuclear cell layer, and a plasma layer were obtained in order. The mononuclear cell layer and plasma layer were isolated, excluding the erythrocyte layer and ficoll layer, and then washed one time with PBS. Then, the number of cells was counted; the cells with a concentration of 1×10^5/0.2 ml were seeded onto T-cell activation media (lymphocyte activation media; RPMI, 10% FBS, 100 μM 2-mercaptoetanol, 20 μg/ml ConA); then the cells were cultured at an incubator of 37° C.; and then culture supernatant was taken at 4.5 hours, 10 hours, and 24 hours. For SP-treated group, 10 nmole/kg of SP dissolved in a physiological saline was treated to T-cell activation media. […] After 30 minutes, 100 μl of stop codon was treated to stop the reaction; the optical density was measured at 450 nm; the amounts of cytokines were converted based on a protein conversion formula by a standard sample; and then the results were shown in FIG. 1. […]
(In an ELISA, binding on a coated surface is turned into a signal by an enzyme label.)

The subject of experiment [2] is CD4+ T cell isolated from peripheral blood. Put plainly: IL-6 and IL-10 expression (ELISA) in CD4+ T cells treated with SP. Type of experiment: cell-based, C57b1/6 mice. Particulars: CD4+ T cell in T-cell activation media; SP as Example 1-(1); 4.5, 10, 24 hours; FIG. 2. The protocol: [The procedure below names another cell line; the source says it served here with some conditions changed.] as §1

The test system of experiment [3] is mononuclear cells in blood. Put plainly: Corneal epithelial burn model: number of mononuclear cells in blood. Type of experiment: in vivo, New Zealand white rabbit. Conditions: rabbit, alkali burn of cornea; 5 nmole/kg SP i.v. immediately and 24 hours after burning; vs continuously increased without SP; FIG. 4. The protocol:
Ketalar (50 mg/ml, Yuhan Corporation) and Rompun (23.32 mg (Xylazine hydrochloride)/ml, Bayer Korea Corporation) were mixed in a rate of 2:1, and then total 900 μl (Ketalar 600 μl: Rompun 300 μl) was injected into muscles of rabbits (New Zealand white rabbit, Male, 2.5 kg, n=4). After the intramuscular injection, 300 μl (Ketalar 200 μl: Rompun 100 μl) of the same anesthetic drug was injected in the rabbit's ear vein.
A 6 mm paper disc fully wetted by 1N NaOH was contacted to a limbus part of rabbit's cornea for 10 seconds. After alkali burning, corneal epithelium was removed in a size of the paper disc. The rabbit's eyes were quickly washed with a physiological saline immediately after alkali burning. At the same time, 5 nmole/kg of SP dissolved in a physiological saline was intravenously injected, and then after 24 hours, was injected once more (immediately after burning and at 24 hours after burning). For the control, PBS with the same volume was injected (injection Volume: 1 ml).
Peripheral blood was collected from ear veins in 10 ml at one, three, five and seven days after alkali burning. […]
The blood obtained from the above step was diluted twice with PBS, and then carefully put on Ficoll in a tube. […] Then, after adding 30 ml of PBS and centrifuging (washing step), the number of cells was counted to confirm the number of cells per 1 ml and then the results were shown in FIG. 4.

Where no end group is shown, it is not given here.

In the case of “Substance-P (RPKPQQFFGLM; not fully specified; ends and bridges not checked; UniProt P20366 58-68, looked up)”, the diabetes lesion entry in the experiment with pancreas beta cells (STZ-induced diabetes, SP treated after inducing diabetes) is recorded as “becomes weak”. Further, in the experiment on pancreas beta cells (STZ-induced diabetes, SP treated when diabetes was induced), the “progress of Type I diabetes” value is listed as “inhibits”. For the same substance, the “death of beta cells secreting insulin” value with pancreas beta cells (STZ-induced diabetes, mice sacrificed at 11 weeks, FIG. 12) is on record as “inhibited”. The “insulin secretion (Insulin IHC staining of pancreas)” value in the experiment on pancreas beta cells (group with injecting SP, mice sacrificed at 11 weeks, vs significantly low with only STZ, FIG. 12) was “high”. In addition, in experiment [1], the “expression level of IL-6 in culture supernatant” value is “no difference” and the “expression of IL-10 in culture supernatant” value is listed as “increased”. In addition, in experiment [2], the “expression level of IL-6 in culture supernatant” value was “no difference” and the “expression of IL-10 in culture supernatant” value is given as “increased”. Moreover, the “total number of mononuclear cells per 1 ml blood” value in experiment [3] was “decreased at seven days”.
